Patent publication US6989401B2, “Sulfonic acid derivatives of hydroxamic acids and their use as medicinal products” (Mitsubishi Pharma Corporation, priority 2000, dated 2006)
Read-outs that look alike come from different tables or passages of the source.

Experiments:
[1] = tested on: LPS in rat peritonitis (CLP; cecal ligation and puncture) model; test: Inhibitory effect on LPS that increases in rat peritonitis (CLP) model; type: in vivo; details: iv, continuous tail vein infusion 2.5 mg/kg/hr
Experimental: Rat peritonitis (CLP; cecal ligation and puncture) model was prepared according to the method of Wichterman et al. (J. Surg. Res. 29, 189-201 <1980>). That is, a rat fasted overnight was anesthetized with ether, and a midline laparotomy was performed and the cecum was exposed. The cecum was ligated with a 3-0 silk thread at its base and perforated two times with an 18 G injection needle. The cecum was gently squeezed to extrude feces, which were spread around the abdomen, and the sectioned part was sutured. The animal was fixed in a Borrmann cage, and physiological saline or drug solution ([…]) was continuously given from the tail vein at an administration rate of 2.5 mg/kg/hr with an infusion pump (22 M, Harvard, 5 mL/kg/hr as a dose).
After 6 hr of the CLP treatment, the animal was sacrificed with carbonic acid gas. The abdominal cavity was washed by injecting phosphate buffered saline (PBS; 37° C., 10 mL) and the abdominal cavity washing containing ascites (PLF; peritoneal lavage fluid) was recovered. The recovery weight of the obtained PLF was measured, and PLF was centrifuged (1500 rpm for 5 min, 4° C.) to recover supernatant. The blood taken from the heart was centrifuged (3000 rpm for 10 min, 4° C.) using a serum separation tube, and the serum was recovered. The concentration of LPS in the abdominal cavity and serum was measured using Toxinometer MT-285 (Waco Pure Chemical Industries) preheated to 37° C., after diluting the supernatant and serum of the recovered PLF 10^5-fold and 10^2-fold, respectively, with sterile distilled water, and adding 200 μL thereof to a limulus reagent (LAL ES, Waco Pure Chemical Industries). The amount of LPS per abdominal cavity was calculated from amount of recovered abdominal cavity washing (PLF)×LPS concentration of PLF.
The LPS inhibitory ratio of the compound was calculated as the ratio of LPS concentration of the compound administration group to LPS concentration of the physiological saline administration group.

[2] = tested on: LPS in E. coli culture supernatant (E. coli NIHJ JC-2 strain); test: Inhibitory effect on LPS in E. coli culture supernatant; type: cell-based; details: relative ratio to the inhibitory ratio of the compound of Example 1 as 1.0; compound 100 μM, 24 hr
Experimental: One platinum loop of E. coli NIHJ JC-2 strain was inoculated into a test tube containing heart infusion broth (HIB, 5 mL) and cultured for about 24 hr. The bacterial culture broth was washed three times by centrifugation (3000 rpm, 15 min, 20° C., TOMY Seiko, RL-131) using 10 mL of fresh HIB medium for one cycle of washing. The washed bacteria were prepared to an about 10^7 colony forming unit (CFU)/mL with a fresh HIB medium, and 0.2 mL of the prepared bacterial suspension was inoculated into an Erlenmeyer flask containing a fresh HIB medium (18.8 mL) (i.e., to final bacterial concentration of about 10^5 CFU/mL). A solution (1 mL) of each compound prepared to a concentration of 2 mM (final concentration of compound 100 μM) was added to the culture broth containing the bacteria. Using a shaker (RGR-1 type, manufactured by IWASHIYA, Ltd.), shake culture was conducted at 37° C., and 2 mL of culture broth after 24 hr was sampled. The sampled culture broth was filtered (DISMIC, 0.45 μm, Advantech Toyo) and diluted 10^5-fold with sterile distilled water. The resulting suspension (200 μL) was added to a limulus reagent (LAL ES, Wako Pure Chemical Industries) and LPS concentration was measured using Toxinometer MT-285 (Wako Pure Chemical Industries) preheated to 37° C.
The LPS inhibitory ratio of the compound was calculated as a ratio of the LPS concentration of the compound addition group relative to the LPS concentration of the compound non-addition group. […] The inhibitory ratio of each compound is shown in the following in Table 1 as a relative ratio to the inhibitory ratio of the compound of Example 1 as 1.0.

[3] = peritoneal lavage fluid 6 hr after CLP, read-out: LPS inhibitory ratio (%) in abdominal cavity
[4] = serum 6 hr after CLP, read-out: LPS inhibitory ratio (%) in blood

**Q.** `CC(C)C[C@@H](C(=O)N[C@@H](Cc1ccccc1)C(=O)NCS(=O)(=O)[O-])C(CN1C(=O)c2ccccc2C1=O)C(=O)NO.[Na+]` (single isomer, unassigned) [Example 15, 5-methyl-3(R)-[2-phenyl-1(S)-(sulfomethylcarbamoyl)ethylcarbamoyl]-2(R or S)-phthalimidomethylhexanohydroxamic acid sodium salt] was tested. Which inhibition in vivo at 2.5 mg/kg/h [1, 3] did it give?
**A.** Its inhibition in vivo at 2.5 mg/kg/h is 70.3%.

**Q.** What about the inhibition in vivo at 2.5 mg/kg/h [1, 4] of the same compound?
**A.** Its inhibition in vivo at 2.5 mg/kg/h is 68.2%.

**Q.** And the “inhibitory effect of compound on LPS in E. coli culture supernatant, relative ratio” value (“inhibitory effect of compound … relative ratio” below) [2]?
**A.** The value was 1.05.

**Q.** How did the inhibition in vivo at 2.5 mg/kg/h [1, 3] turn out when `CC(C)C[C@@H](C(=O)N[C@@H](Cc1ccccc1)C(=O)NCCS(=O)(=O)[O-])C(CN1C(=O)c2ccccc2C1=O)C(=O)NO.[Na+]` (single isomer, unassigned) [Example 17, 5-methyl-3(R)-[2-phenyl-1(S)-(2-sulfoethylcarbamoyl)ethylcarbamoyl]-2(R or S)-phthalimidomethylhexanohydroxamic acid sodium salt] was run?
**A.** The inhibition in vivo at 2.5 mg/kg/h was 14.4%.

**Q.** What about the inhibition in vivo at 2.5 mg/kg/h [1, 4] of the same compound?
**A.** The inhibition in vivo at 2.5 mg/kg/h was 59.1%.

**Q.** And the “inhibitory effect of compound … relative ratio” value [2]?
**A.** Its value is 0.78.

**Q.** How did the inhibition in vivo at 2.5 mg/kg/h [1, 3] turn out when `CC(C)C[C@@H](C(=O)N[C@@H](Cc1ccccc1)C(=O)NCCCS(=O)(=O)[O-])C(CN1C(=O)c2ccccc2C1=O)C(=O)NO.[Na+]` (single isomer, unassigned) [Example 19, 5-methyl-3(R)-[2-phenyl-1(S)-(3-sulfopropylcarbamoyl)ethylcarbamoyl]-2(R or S)-phthalimidomethylhexanohydroxamic acid sodium salt] was run?
**A.** The inhibition in vivo at 2.5 mg/kg/h was 89.6%.

**Q.** What about the inhibition in vivo at 2.5 mg/kg/h [1, 4] of the same compound?
**A.** Its inhibition in vivo at 2.5 mg/kg/h is 67.8%.

**Q.** What about the “inhibitory effect of compound … relative ratio” value [2] of the same compound?
**A.** Its value is 0.67.

**Q.** `CC(C)C[C@@H](C(=O)N[C@@H](Cc1ccccc1)C(=O)NCCCCS(=O)(=O)[O-])C(CN1C(=O)c2ccccc2C1=O)C(=O)NO.[Na+]` (single isomer, unassigned) [Example 21, 5-methyl-3(R)-[2-phenyl-1(S)-(4-sulfobutylcarbamoyl)ethylcarbamoyl]-2(R or S)-phthalimidomethylhexanohydroxamic acid sodium salt] was tested. Which inhibition in vivo at 2.5 mg/kg/h [1, 3] did it give?
**A.** Its inhibition in vivo at 2.5 mg/kg/h is 57.1%.

**Q.** What about the inhibition in vivo at 2.5 mg/kg/h [1, 4] of the same compound?
**A.** The inhibition in vivo at 2.5 mg/kg/h was 55.9%.

**Q.** And the “inhibitory effect of compound … relative ratio” value [2]?
**A.** The value was 0.79.

**Q.** Which results are given for `CC(C)C[C@@H](C(=O)N[C@@H](Cc1ccccc1)C(=O)NCCCCCS(=O)(=O)[O-])C(CN1C(=O)c2ccccc2C1=O)C(=O)NO.[Na+]` (single isomer, unassigned) [Example 22, 5-methyl-3(R)-[2-phenyl-1(S)-(5-sulfopentylcarbamoyl)ethylcarbamoyl]-2(R or S)-phthalimidomethylhexanohydroxamic acid sodium salt]?
**A.** inhibition in vivo at 2.5 mg/kg/h [1, 3]: 80.7%; inhibition in vivo at 2.5 mg/kg/h [1, 4]: 21.6%; inhibitory effect of compound on LPS in E. coli culture supernatant, relative ratio [2]: 0.68
